According to patent US20110263647A1 (AMGEN INC., priority 2009, published 2011):
pIC50: −log10 of the molar value. Where a name gives a salt, the structure may show the parent alone.

Legend:
PKBα = target: T1, PKBα (Homo sapiens, UniProt P31749); experiment: PKB kinase assay (P33-labeled ATP, peptide substrate, filter plate); format: biochemical; conditions: with respect to PKBα
T1 construct: fused on or other part: His6 tag is likely on the Upstate products
Text: The kinase assay for evaluating PKB activity comprises active PKB enzymes, a PKB specific substrate, and P^33-labeled ATP. Two form of PKBα enzymes were used, the full length PKBα and a kinase domain of PKBα with pleckstrin domain (amino acids 1-117) deleted. Both PKB enzymes were obtained from Upstate cell signaling solutions (Cat.# 14-276 and 14-341). The PKB substrate used is a synthetic peptide (ARKRERTYSFGHHA (SEQ ID NO: 1)) as described in Obata et al., J. Biol. Chem. 275 (46), 36108-36115 (2000). The phosphorylated substrate was captured by a phosphocellulose membrane filter plate (MILLIPORE) and measured by a Wallac Microbeta liquid scintillation counter (Perkin Elmer). Table 1 provides the IC50 values obtained for each of the examples with respect to PKBα.

CYP2D6 = target: T2, CYP2D6 (Homo sapiens, UniProt P10635); experiment: CYP2D6 inhibition assay (bufuralol, pooled human liver microsomes); format: in vitro ADME; conditions: pH 7.4, probe bufuralol (5 μM), test compound 3 μM, human liver microsomes 0.25 mg/mL
T2 construct: tissue XenoTech LLC Lot 0610351; host or cells: pooled human liver microsomes
Procedure: Midazolam was obtained from BD Gentest (Waltham, Mass.); 1′ hydroxy midazolam and 1-hydroxy bufuralol maleate were obtained from Ultrafine Chemicals (Manchester, UK); bufuralol HCl, ketoconazole, quinidine, potassium phosphate, and NADPH were obtained from Sigma (St. Louis, Mo.). Test compounds were prepared at 10 mM concentration in DMSO (Mallinckrodt Inc., St. Louis, Mo.). NADPH was prepared at 10 mM concentration in a pH 7.4 buffer (8.3 mg/mL 66.7 mM potassium phosphate). Midazolam was prepared at 1 mM concentration in deionized water (Amgen, Thousand Oaks, Calif.), and bufuralol was prepared at 2 mM concentration in deionized water. A stock solution of ketoconazole was prepared at 37 mM concentration in DMSO, and quinidine was prepared at 500 uM concentration in DMSO. Formic acid in acetonitrile (0.05%, ACN) was used as a quench solution (Sigma-Aldrich, St. Louis, Mo.). All solvents used for LC/MS were of chromatographic grade. Pooled human liver microsomes (Lot 0610351) were purchased from XenoTech LLC, (Lenexa, Kans.).
Pooled human liver microsomes (0.25 mg/mL) were incubated at 37° C. in a phosphate buffer (66.7 mM potassium phosphate at pH 7.4) with the selective CYP2D6 substrate bufuralol at a concentration of 5 μM in the presence and absence of test compound (3 μM). The reaction was started with the addition of NADPH (1 mM final concentration). The reaction was stopped after 10 minutes by addition of formic acid in acetonitrile. 1-Hydroxybufuralol metabolite formation was measured by an HPLC MS detection method (mobile phases for HPLC were: 0.1% AcOH in 5% MeOH, and 0.1% AcOH in 95% MeOH; the HPLC column was an Onyx Monolithic C18 CHO-7645 HPLC column from Phenomenex; Shimadzu LC-10ADVP equipped Biomek FX Liquid handling system and CTC Analytics PAL well auto-sampler; Mass spectrometer: Applied Biosystems API 3000 using Analyst 1.4.1 software). Inhibition was determined by the ratio of the amount of 1-hydroxy bufuralol metabolite formed metabolite in the presence of test compound to the amount of metabolite in the absence of test compound.

U87MG tumors = experiment: U87MG xenograft tumor growth model; format: in vivo, Athymic nude mice; conditions: oral 10, 30, 60 and 100 mg/kg/day; 13 days (Example 2), 10 days and 17 days (Example 18)
Procedure: The effect of PKB inhibition on tumor growth in vivo was assessed in an established U87MG xenograft model for Examples 2 and 18. Athymic nude mice bearing U87MG tumors (approximately 200 mm^3) in the right flank were treated with the compound orally at the dosage of 10, 30, 60, and 100 mg/kg/day (n=10) for 13 days (Example 2) and for 10 days and 17 days (Example 18). Tumor volume and body weight were measured twice per week. Data were expressed as means plus or minus standard errors and plotted as a function of time. Statistical significance of the effect was evaluated by Repeated Measures Analysis of Variance (RMANOVA) followed by Scheffe post hoc testing for multiple comparisons.

T2 sequence (P10635 whole entry): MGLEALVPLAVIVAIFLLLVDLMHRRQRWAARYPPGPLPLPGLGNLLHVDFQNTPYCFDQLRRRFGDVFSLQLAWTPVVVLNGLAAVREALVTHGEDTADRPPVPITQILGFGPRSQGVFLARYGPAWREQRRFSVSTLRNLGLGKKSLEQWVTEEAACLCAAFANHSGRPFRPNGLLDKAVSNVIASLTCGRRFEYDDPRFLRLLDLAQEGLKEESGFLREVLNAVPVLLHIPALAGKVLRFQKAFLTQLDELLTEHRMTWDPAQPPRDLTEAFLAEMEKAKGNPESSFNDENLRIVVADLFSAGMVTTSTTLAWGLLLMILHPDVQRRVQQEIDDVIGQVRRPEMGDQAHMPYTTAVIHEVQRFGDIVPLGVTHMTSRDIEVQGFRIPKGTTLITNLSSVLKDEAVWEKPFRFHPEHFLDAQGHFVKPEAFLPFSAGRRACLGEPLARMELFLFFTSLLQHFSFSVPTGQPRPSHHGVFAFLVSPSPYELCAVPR
T1 sequence (P31749 118-472 limits assumed): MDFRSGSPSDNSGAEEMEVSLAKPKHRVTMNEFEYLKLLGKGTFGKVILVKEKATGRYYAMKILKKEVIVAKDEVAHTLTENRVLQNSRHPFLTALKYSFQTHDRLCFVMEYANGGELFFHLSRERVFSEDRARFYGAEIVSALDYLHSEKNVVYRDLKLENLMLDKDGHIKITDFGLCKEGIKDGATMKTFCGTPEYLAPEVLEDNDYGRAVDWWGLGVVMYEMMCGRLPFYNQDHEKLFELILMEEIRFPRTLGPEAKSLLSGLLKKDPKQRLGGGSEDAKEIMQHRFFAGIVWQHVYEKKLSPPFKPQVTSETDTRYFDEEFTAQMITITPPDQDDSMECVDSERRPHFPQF

pIC50 (PKBα) | inhibition at 10 min, 3 μM (CYP2D6) [%] | Structure (SMILES) | tumor growth inhibition (U87MG tumors)
> 7.30 | 27 | N[C@H](CCc1ncc(-c2ccc3cnc(F)cc3c2)s1)[C@@H](O)c1ccc(C(F)(F)F)cc1 [Example 36, (1S,2R)-2-Amino-4-(5-(3-fluoroisoquinolin-6-yl)thiazol-2-yl)-1-(4-(trifluoromethyl)phenyl)butan-1-ol trifluoroacetate] | –
> 7.30 | 53 | N[C@H](CNc1ncc(-c2ccc3cnc(F)cc3c2)s1)Cc1ccc(C(F)(F)F)nc1 [Example 2, (2S)—N-(5-(3-Fluoro-6-isoquinolinyl)-1,3-thiazol-2-yl)-3-(6-(trifluoromethyl)-3-pyridinyl)-1,2-propanediamine] | Dose dependent tumor growth inhibition
> 7.30 | 75 | COCc1nc(NC[C@@H](N)Cc2ccc(C(F)(F)F)nc2)sc1-c1ccc2cnc(F)cc2c1 [Example 18, N—((S)-2-Amino-3-(6-(trifluoromethyl)pyridin-3-yl)propyl)-5-(3-fluoroisoquinolin-6-yl)-4-(methoxymethyl)thiazol-2-amine] | Dose dependent tumor growth inhibition

The next lines start with the compound.

Structure (SMILES) | pIC50 (PKBα) | inhibition at 10 min, 3 μM (CYP2D6) [%] | tumor growth inhibition (U87MG tumors)
N[C@H](CNc1ncc(-c2ccc3cnc(F)cc3c2)s1)CN1CCC(C(F)(F)F)CC1 [Example 25, N—((R)-2-Amino-3-(4-(trifluoromethyl)piperidin-1-yl)propyl)-5-(3-fluoroisoquinolin-6-yl)thiazol-2-amine] | 6.00 to 7.30 | 51 | –
CC(F)(F)c1ccc(C[C@H](N)CNc2ncc(-c3ccc4cnc(F)cc4c3)s2)cn1 [Example 7, N—((S)-2-Amino-3-(6-(1,1-difluoroethyl)pyridin-3-yl)propyl)-5-(3-fluoroisoquinolin-6-yl)thiazol-2-amine] | > 7.30 | 23 | –
N[C@H](CNc1ncc(-c2ccc3cnc(F)cc3c2)s1)[C@@H](CO)c1ccc(C(F)(F)F)cc1 [Example 33, (2S,3S)-3-Amino-4-(5-(3-fluoroisoquinolin-6-yl)thiazol-2-ylamino)-2-(4-(trifluoromethyl)phenyl)butan-1-ol] | > 7.30 | 49 | –
CC(F)(F)c1ccc(C[C@H](N)CCc2ncc(-c3ccc4cnc(F)cc4c3)s2)cn1 [Example 50] | > 7.30 | 71 | –
CC(F)(F)c1ccc([C@H](O)[C@H](N)CNc2ncc(-c3ccc4cnc(F)cc4c3)s2)cc1 [Example 38, (1S,2R)-2-Amino-1-(4-(1,1-difluoroethyl)phenyl)-3-((5-(3-fluoro-6-isoquinolinyl)-1,3-thiazol-2-yl)amino)-1-propanol trifluoroacetate] | > 7.30 | 44 | –
N[C@H](CNc1ncc(-c2ccc3cnc(F)cc3c2)s1)Cc1ccc(Cl)c(F)c1 [Example 44, (2S)-3-(4-Chloro-3-fluorophenyl)-N-1-(5-(3-fluoro-6-isoquinoliny)-1,3-thiazol-2-yl)-1-2-propanediamine] | > 7.30 | 42 | –
C[C@@H](c1ccc(C(F)(F)F)cc1)[C@H](N)CNc1ncc(-c2ccc3cnc(F)cc3c2)s1 [Example 10, N-((2S,3S)-2-Amino-3-(4-(trifluoromethyl)phenyl)butyl)-5-(3-fluoroisoquinolin-6-yl)thiazol-2-amine] | > 7.30 | 19 | –
N[C@H](CNc1ncc(-c2ccc3cnc(F)cc3c2)s1)Cc1ccc(C(F)(F)F)cc1 [Example 4, N—((S)-2-Amino-3-(4-(trifluoromethyl)phenyl)propyl)-5-(3-fluoroisoquinolin-6-yl)thiazol-2-amine trifluoroacetate] | > 7.30 | 44 | –
